Reference: patent publication US20260286316A1, “METHOD OF PRODUCTION OF MODIFIED PHAGE AND METHOD OF TREATMENT USING SAME” (priority 2022, published 2026)
Read-outs that look alike come from different tables or passages of the source.

Legend:
[1] = system: S. aureus ATCC51650 and CIs (CI2, CI3, CI4, CI6, CI7, CI8, CI9, and CI11); assay type: cell-based, Staphylococcus aureus
Procedure: (§1) Initial screening was performed in 100 μl in 96 well plates, with follow up experiments in 10 mL culture volume. S. aureus strains were grown on 1.5% Tryptone Soya Agar (TSA) at 37° C. overnight. Single colonies were transferred to Tryptone Soya Broth (TSB) to generate a culture with a starting concentration of 5×10^5 CFU/ml. […] Antibiotics were added to the cultures at ½ MIC (according to the pretest MIC of antibiotics) if required. Optical density (OD) readings at 600 nm were recorded at 24 hours to assess the growth of bacteria co-inoculated with phage unless otherwise specified. Uninoculated, fresh media was included as a sterility control.
A synergistic effect was defined as a statistically significant decrease in optical density (OD) that was larger than the combined decrease in OD of antibiotic and phage only controls.

[2] = system: S. aureus isolates (15 clinical isolates and 2 ATCC strains); experiment: Antibiotic sensitivity testing, 17 isolates; assay type: cell-based, Staphylococcus aureus; details: of 17 S. aureus isolates
Procedure: S. aureus ATCC51650 and ATCC25923 were obtained from the American Type Culture Collection (Manassas, VA, United States of America) and used as reference strains. In addition, a total of 15 S. aureus clinical isolates (CIs) were isolated from the sinonasal cavities of chronic sinusitis (CRS) patients. In each case, S. aureus was cultured by an independent diagnostic laboratory and the antibiotic susceptibility determined by disc diffusion on Mueller-Hinton agar per Clinical and Laboratory Standards Institute (CLSI) recommendations (Adelaide Pathology Partners, Mile End, SA, Australia). Bacteria were isolated on Columbian horse blood agar plates, colistin nalidixic acid plates, or cystine lactose electrolyte-deficient plates (Oxoid Australia Pty Ltd, Thebarton, SA, Australia). Positive cultures were confirmed to be S. aureus using latex agglutination testing.
(§2) The minimum inhibitory concentration (MIC) of amoxicillin, vancomycin, erythromycin, clindamycin and azithromycin against the S. aureus strains was assessed using the broth microdilution technique as previously described (Wiegand I et al., Nature protocols 3 (2): 163-175, 2008) and breakpoints defined according to CSLI guidelines. Clinical strains resistant to at least one antibiotic in three or more antibiotic categories were defined as multidrug resistant (MDR).

[3] = system: S. aureus CI3; experiment: Phage combined with ½ MIC antibiotics on planktonic S. aureus (OD600), CI3; assay type: cell-based, Staphylococcus aureus; details: ½ MIC antibiotic, phage MOI=0.2, 24 hours
Procedure: as §1

[4] = system: S. aureus CI3; experiment: Rat rhinosinusitis model, efficacy arm (sinus mucosa CFU, biofilm biomass, histopathology); assay type: in vivo, Sprague Dawley rats
Text: Rat nasal tissues were fixed in 10% neutral buffered formalin. Tissue samples were then decalcified using 9.5% nitric acid in 1% ethylenediaminetetracetic acid (EDTA), processed to paraffin wax, and 6 μm sections cut and stained with H&E. The samples were examined by a veterinary pathologist blinded to the treatments given.
An established murine rhinosinusitis model was used with modifications (see YU C-j et al., Chinese Journal of Otorhinolaryngology-Skull Base Surgery 6, 2011; Zhang F et al., Am J Rhinol Allergy 27 (5): 361-366, 2013; and Jin M et al., Ear Arch Oto-Rhino-L 268 (6): 857-861, 2011). […] The sponges were placed at approximately 15 mm from the anterior nostril, located in the ostiomeatal complex. The rats were monitored for a nine-day period to allow for mucosal biofilms to form, and, on the tenth day, the sponges were removed. A two-day recovery was given to the rat before treatments begun. […] Treatments were administered intranasally twice a day for 14 days. Rats were monitored for weight and respiratory alterations (respiration rate; nasal discharge, hyperaemia or pruritus; and sneezing) during treatment, and, 14 days post-treatment initiation, the rats were humanely sacrificed. Their sinus mucosa was harvested for CFU counting, biofilm quantification, histopathology, and phage enumeration. […]
The quantification of biofilm biomass on sinus mucosa was determined using an established protocol (Singhal D et al., editors. Quantitative analysis of in vivo mucosal bacterial biofilms. International Forum of Allergy & Rhinology; 2012: Wiley Online Library (27). Briefly, the frontal sinus mucosa was harvested and placed into Dulbecco's Modified Eagle's Medium (Life Technologies, Carlsbad, CA, United States of America) on ice. One piece of mucosa from each frontal sinus was stained with a LIVE/DEAD® BacLight Bacterial Viability Kit (Life Technologies Australia). The stained mucosa was then examined at 20× magnification using a confocal laser scanning microscope (Zeiss LSM700, Carl Zeiss AG, Oberkochen, Germany). […]

[5] = system: S. aureus CI3; experiment: Antibiotic sensitivity of the isolate selected for in vivo experiments; assay type: cell-based, Staphylococcus aureus
Procedure: as §2
A fresh culture of CI3 on 1.5% TSA plates was prepared two days before inoculation. A single colony was resuspended in 0.9% saline (ca. 2 ml) to turbidity reading 0.5 McFarland Units and then a 1 in 100 dilution in TSB was cultured overnight one day before the in vivo experiment. CI3 pellets were harvested and resuspended in fresh TSB to reach 2.5×10^9 Colony Forming Units (CFU)/ml.

CN[C@H](CC(C)C)C(=O)N[C@H]1C(=O)N[C@@H](CC(N)=O)C(=O)N[C@H]2C(=O)N[C@H]3C(=O)N[C@H](C(=O)N[C@H](C(=O)O)c4cc(O)cc(O)c4-c4cc3ccc4O)[C@H](O)c3ccc(c(Cl)c3)Oc3cc2cc(c3O[C@@H]2O[C@H](CO)[C@@H](O)[C@H](O)[C@H]2O[C@H]2C[C@](C)(N)[C@H](O)[C@H](C)O2)Oc2ccc(cc2Cl)[C@H]1O [vancomycin]
additive or synergistic effect of the antibiotic combined with phage [1]: None of the combinations of phage with either of the cell wall actives (amoxicillin and vancomycin) showed any significant additive or synergistic effects

CC[C@H]1OC(=O)[C@H](C)[C@@H](O[C@H]2C[C@@](C)(OC)[C@@H](O)[C@H](C)O2)[C@H](C)[C@@H](O[C@@H]2O[C@H](C)C[C@H](N(C)C)[C@H]2O)[C@](C)(O)C[C@@H](C)C(=O)[C@H](C)[C@@H](O)[C@]1(C)O [erythromycin]
isolates exhibiting resistance to the antibiotic [2]: three | synergistic effects with phage J-Sa36, Sa83 and Sa87 on bacterial viability (OD600) [3]: synergistic effects

CC1(C)S[C@@H]2[C@H](NC(=O)[C@H](N)c3ccc(O)cc3)C(=O)N2[C@H]1C(=O)O [amoxicillin]
additive or synergistic effect of the antibiotic combined with phage ([1]; ½ MIC antibiotic with J-Sa36, Sa83 or Sa87 (MOI=0.2)): None of the combinations of phage with either of the cell wall actives (amoxicillin and vancomycin) showed any significant additive or synergistic effects

CC[C@H]1OC(=O)[C@H](C)[C@@H](O[C@H]2C[C@@](C)(OC)[C@@H](O)[C@H](C)O2)[C@H](C)[C@@H](O[C@@H]2O[C@H](C)C[C@H](N(C)C)[C@H]2O)[C@](C)(O)C[C@@H](C)CN(C)[C@H](C)[C@@H](O)[C@]1(C)O [azithromycin]
isolates exhibiting resistance to the antibiotic [2]: two | synergistic effects with phage J-Sa36, Sa83 and Sa87 on bacterial viability (OD600) [3]: synergistic effects | biofilm biomass on sinus mucosa compared to control, single agent ([4]; 0.5×10^10 PFU/ml Sa87 or ½ MIC antibiotic alone): significant increase in biomass | histopathology of the maxilloturbinates, single agent ([4]; Sa87, ½ MIC clindamycin or ½ MIC azithromycin only): evidence of cilial denudation and surface epithelial erosion | antibiotic sensitivity of the isolate [5]: sensitive
